Measured values: ChEMBL document CHEMBL4321854, “Discovery of a First-in-Class Mitogen-Activated Protein Kinase Kinase 1/2 Degrader” (J Med Chem, 2019)
Activity calls are given as the source filed them.

What was measured:
[1] = target: T1, von Hippel-Lindau disease tumor suppressor/Dual specificity mitogen-activated protein kinase kinase 2 (Homo sapiens) (UniProt P36507+P40337); test: Protac activity against VHL/MEK2 in human SK-MEL-28 cells harboring with BRAF V600E variant assessed as degradation of MEK2 at 0.1 to 0.3 uM by Western blot analysis; assay type: cell-based; conditions: TDE = time-dependent effect
[2] = Ratio of Plasma concentration in Swiss albino mouse at 50 mg/kg, ip measured after 8 hrs to GI50 for antiproliferative activity against human COLO205 cells; assay type: organism-based; conditions: in vivo
[3] = target: T2, von Hippel-Lindau disease tumor suppressor/Dual specificity mitogen-activated protein kinase kinase 1 (Homo sapiens) (UniProt Q02750+P40337); test: Protac activity against VHL/MEK1 in human SK-MEL-28 cells harboring with BRAF V600E variant assessed as degradation of MEK1 by measuring MEK1 protein level at 0.3 uM pretreated with VHL ligand, VH 032 for 2 hrs followed by incubation with compound for 10 hrs by Western blot analysis; assay type: cell-based
[4] = target: T2, von Hippel-Lindau disease tumor suppressor/Dual specificity mitogen-activated protein kinase kinase 1 (Homo sapiens); test: Protac activity against VHL/MEK1 in human SK-MEL-28 cells harboring with BRAF V600E variant assessed as degradation of MEK1 by measuring MEK1 protein level at 0.3 uM pretreated with MEK1/2 inhibitor, PD0325901 for 2 hrs followed by incubation with compound for 10 hrs by Western blot analysis; assay type: cell-based
[5] = target: T2, von Hippel-Lindau disease tumor suppressor/Dual specificity mitogen-activated protein kinase kinase 1 (Homo sapiens); test: Protac activity against VHL/MEK1 in human HT-29 cells harboring with BRAF V600E variant assessed as degradation of MEK1 by measuring MEK1 protein level at 0.3 uM pretreated with proteasome inhibitor, MG-132 for 2 hrs followed by incubation with compound for 10 hrs by Western blot analysis; assay type: cell-based
[6] = target: T2, von Hippel-Lindau disease tumor suppressor/Dual specificity mitogen-activated protein kinase kinase 1 (Homo sapiens); test: Protac activity against VHL/MEK1 in human SK-MEL-28 cells harboring with BRAF V600E variant assessed as degradation of MEK1 at 3 to 5 uM after 24 hrs by Western blot analysis; assay type: cell-based
[7] = target: T2, von Hippel-Lindau disease tumor suppressor/Dual specificity mitogen-activated protein kinase kinase 1 (Homo sapiens); test: Protac activity against VHL/MEK1 in human HT-29 cells harboring with BRAF V600E variant assessed as degradation of MEK1 by measuring reduction in MEK1 protein level at 0.3 uM after 4 hrs by Western blot analysis relative to control; assay type: cell-based; set-up: scale not given: the % may be the effect or the level left
[8] = target: von Hippel-Lindau disease tumor suppressor/Leukocyte receptor cluster member 8 (Homo sapiens) (UniProt P40337+Q96PV6); test: Protac activity against VHL/LENG8 in human HT-29 cells harboring with BRAF V600E variant assessed as LENG8 protein level at 0.1 uM after 10 hrs by Western blot analysis; assay type: cell-based
[9] = target: T3, von Hippel-Lindau disease tumor suppressor/Dual specificity mitogen-activated protein kinase kinase 2/Dual specificity mitogen-activated protein kinase kinase 1 (Homo sapiens) (UniProt P36507+Q02750+P40337); test: Protac activity against VHL/MEK1/2 in human HT-29 cells harboring with BRAF V600E variant assessed as phosphorylation of ERK at T202/Y204 residues at 0.3 uM pretreated with MEK1/2 inhibitor, PD0325901 for 2 hrs followed by incubation with compound for 10 hrs by Western blot analysis; assay type: cell-based
[10] = target: T1, von Hippel-Lindau disease tumor suppressor/Dual specificity mitogen-activated protein kinase kinase 2 (Homo sapiens); test: Protac activity against VHL/MEK2 in human SK-MEL-28 cells harboring with BRAF V600E variant assessed as degradation of MEK2 by measuring MEK2 protein level at 0.3 uM pretreated with proteasome inhibitor, MG-132 for 2 hrs followed by incubation with compound for 10 hrs by Western blot analysis; assay type: cell-based
COLO 205 = test: Antiproliferative activity against human COLO205 cells assessed as reduction in cell growth after 3 days by WST8 assay; assay type: functional
[11] = target: T1, von Hippel-Lindau disease tumor suppressor/Dual specificity mitogen-activated protein kinase kinase 2 (Homo sapiens); test: Protac activity against VHL/MEK2 in human HT-29 cells harboring with BRAF V600E variant assessed as degradation of MEK2 by measuring MEK2 protein level at 0.3 uM pretreated with MEK1/2 inhibitor, PD0325901 for 2 hrs followed by incubation with compound for 10 hrs by Western blot analysis; assay type: cell-based
[12] = target: T3, von Hippel-Lindau disease tumor suppressor/Dual specificity mitogen-activated protein kinase kinase 2/Dual specificity mitogen-activated protein kinase kinase 1 (Homo sapiens); test: Protac activity against VHL/MEK1/2 in human SK-MEL-28 cells harboring with BRAF V600E variant assessed as reduction in phosphorylation of MEK at S218/222 residues at 0.1 to 0.3 after >= 2 hrs by Western blot analysis; assay type: cell-based
[13] = target: von Hippel-Lindau disease tumor suppressor/Dual specificity mitogen-activated protein kinase kinase 2 (Homo sapiens, UniProt P36507+P40337, V600E); test: (§1) Protac activity against VHL/MEK2 in human UACC257 cells harboring BRAF V600E variant assessed as degradation of MEK2 after 24 hrs by Western blot analysis; assay type: cell-based
[14] = target: T1, von Hippel-Lindau disease tumor suppressor/Dual specificity mitogen-activated protein kinase kinase 2 (Homo sapiens); test: as §1; assay type: cell-based
[15] = target: T1, von Hippel-Lindau disease tumor suppressor/Dual specificity mitogen-activated protein kinase kinase 2 (Homo sapiens); test: Protac activity against VHL/MEK2 in human HT-29 cells harboring with BRAF V600E variant assessed as degradation of MEK2 by measuring MEK2 protein level at 0.3 uM pretreated with VHL ligand, VH 032 for 2 hrs followed by incubation with compound for 10 hrs by Western blot analysis; assay type: cell-based
[16] = target: T3, von Hippel-Lindau disease tumor suppressor/Dual specificity mitogen-activated protein kinase kinase 2/Dual specificity mitogen-activated protein kinase kinase 1 (Homo sapiens); test: Protac activity against VHL/MEK1/2 in human HT-29 cells harboring with BRAF V600E variant assessed as phosphorylation of MEK at S218/222 residues at 0.3 uM pretreated with proteasome inhibitor, MG-132 for 2 hrs followed by incubation with compound for 10 hrs by Western blot analysis; assay type: cell-based
[17] = target: von Hippel-Lindau disease tumor suppressor/Dual specificity mitogen-activated protein kinase kinase 1 (Homo sapiens, UniProt Q02750+P40337, V600E); test: (§2) Protac activity against VHL/MEK1 in human HT-29 cells harboring BRAF V600E variant assessed as degradation of MEK1 after 24 hrs by Western blot analysis; assay type: cell-based
[18] = target: T2, von Hippel-Lindau disease tumor suppressor/Dual specificity mitogen-activated protein kinase kinase 1 (Homo sapiens); test: as §2; assay type: cell-based
[19] = Ratio of Plasma concentration in Swiss albino mouse at 50 mg/kg, ip measured after 8 hrs to GI50 for antiproliferative activity against human SK-MEL-28 cells; assay type: organism-based; conditions: in vivo
[20] = target: T3, von Hippel-Lindau disease tumor suppressor/Dual specificity mitogen-activated protein kinase kinase 2/Dual specificity mitogen-activated protein kinase kinase 1 (Homo sapiens); test: Protac activity against VHL/MEK1/2 in human SK-MEL-28 cells harboring with BRAF V600E variant assessed as reduction in phosphorylation of MEK at S218/222 residues after 24 hrs by Western blot analysis; assay type: cell-based
[21] = target: T2, von Hippel-Lindau disease tumor suppressor/Dual specificity mitogen-activated protein kinase kinase 1 (Homo sapiens); test: Protac activity against VHL/MEK1 in human HT-29 cells harboring with BRAF V600E variant assessed as degradation of MEK1 by measuring reduction in MEK1 protein level at 0.1 uM after 10 hrs by LC-MS based Volcano plot analysis; assay type: cell-based
[22] = target: T1, von Hippel-Lindau disease tumor suppressor/Dual specificity mitogen-activated protein kinase kinase 2 (Homo sapiens); test: Protac activity against VHL/MEK2 in human SK-MEL-28 cells harboring with BRAF V600E variant assessed as degradation of MEK2 by measuring reduction in MEK2 protein level at 0.3 uM after 24 hrs by Western blot analysis relative to control; assay type: cell-based; set-up: scale not given: the % may be the effect or the level left
[23] = target: T1, von Hippel-Lindau disease tumor suppressor/Dual specificity mitogen-activated protein kinase kinase 2 (Homo sapiens); test: Protac activity against VHL/MEK2 in human SK-MEL-28 cells harboring with BRAF V600E variant assessed as degradation of MEK2 by measuring MEK2 protein level at 0.3 uM pretreated with VHL ligand, VH 032 for 2 hrs followed by incubation with compound for 10 hrs by Western blot analysis; assay type: cell-based
[24] = target: T1, von Hippel-Lindau disease tumor suppressor/Dual specificity mitogen-activated protein kinase kinase 2 (Homo sapiens); test: Protac activity against VHL/MEK2 in human HT-29 cells harboring with BRAF V600E variant assessed as degradation of MEK2 at 0.1 to 0.3 uM by Western blot analysis; assay type: cell-based; conditions: TDE = time-dependent effect

T2 sequence (P40337 whole entry, looked up): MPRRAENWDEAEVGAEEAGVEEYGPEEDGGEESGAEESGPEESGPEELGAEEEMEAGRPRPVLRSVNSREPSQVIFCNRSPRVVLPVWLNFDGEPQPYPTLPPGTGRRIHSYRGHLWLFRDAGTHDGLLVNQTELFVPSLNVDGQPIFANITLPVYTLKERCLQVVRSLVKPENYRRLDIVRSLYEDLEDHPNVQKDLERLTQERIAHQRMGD
T2 sequence (Q02750 whole entry, looked up): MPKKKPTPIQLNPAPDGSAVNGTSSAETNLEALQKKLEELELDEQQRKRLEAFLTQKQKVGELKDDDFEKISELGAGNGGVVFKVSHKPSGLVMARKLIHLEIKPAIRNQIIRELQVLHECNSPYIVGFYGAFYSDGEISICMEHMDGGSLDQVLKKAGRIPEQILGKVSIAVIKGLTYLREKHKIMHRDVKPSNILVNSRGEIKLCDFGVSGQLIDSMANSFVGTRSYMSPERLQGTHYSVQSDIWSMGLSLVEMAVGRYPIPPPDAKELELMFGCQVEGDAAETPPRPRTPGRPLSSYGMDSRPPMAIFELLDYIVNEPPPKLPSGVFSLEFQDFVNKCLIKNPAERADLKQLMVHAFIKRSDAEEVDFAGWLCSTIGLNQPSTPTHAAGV
T3 sequence (P36507 whole entry, looked up): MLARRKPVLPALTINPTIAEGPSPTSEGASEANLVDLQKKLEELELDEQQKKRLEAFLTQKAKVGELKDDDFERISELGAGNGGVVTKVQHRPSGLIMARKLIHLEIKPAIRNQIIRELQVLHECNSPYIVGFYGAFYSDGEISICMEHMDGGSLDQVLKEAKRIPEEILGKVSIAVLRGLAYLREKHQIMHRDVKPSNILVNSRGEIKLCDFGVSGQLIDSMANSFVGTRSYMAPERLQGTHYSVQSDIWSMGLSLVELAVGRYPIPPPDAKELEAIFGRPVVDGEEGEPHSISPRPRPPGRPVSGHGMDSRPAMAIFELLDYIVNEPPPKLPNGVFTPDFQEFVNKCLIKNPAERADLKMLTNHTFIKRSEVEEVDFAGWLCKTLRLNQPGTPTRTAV
T3 sequence (P40337 whole entry, looked up): as the sequence (P40337 whole entry, looked up) above
T3 sequence (Q02750 whole entry, looked up): as the sequence (Q02750 whole entry, looked up) above
T1 sequence (P36507 whole entry, looked up): as the sequence (P36507 whole entry, looked up) above
T1 sequence (P40337 whole entry, looked up): as the sequence (P40337 whole entry, looked up) above
Sequence of von Hippel-Lindau disease tumor suppressor/Leukocyte receptor cluster member 8 (Homo sapiens) (P40337 whole entry, looked up): as above
Sequence of von Hippel-Lindau disease tumor suppressor/Leukocyte receptor cluster member 8 (Homo sapiens) (Q96PV6 whole entry, looked up): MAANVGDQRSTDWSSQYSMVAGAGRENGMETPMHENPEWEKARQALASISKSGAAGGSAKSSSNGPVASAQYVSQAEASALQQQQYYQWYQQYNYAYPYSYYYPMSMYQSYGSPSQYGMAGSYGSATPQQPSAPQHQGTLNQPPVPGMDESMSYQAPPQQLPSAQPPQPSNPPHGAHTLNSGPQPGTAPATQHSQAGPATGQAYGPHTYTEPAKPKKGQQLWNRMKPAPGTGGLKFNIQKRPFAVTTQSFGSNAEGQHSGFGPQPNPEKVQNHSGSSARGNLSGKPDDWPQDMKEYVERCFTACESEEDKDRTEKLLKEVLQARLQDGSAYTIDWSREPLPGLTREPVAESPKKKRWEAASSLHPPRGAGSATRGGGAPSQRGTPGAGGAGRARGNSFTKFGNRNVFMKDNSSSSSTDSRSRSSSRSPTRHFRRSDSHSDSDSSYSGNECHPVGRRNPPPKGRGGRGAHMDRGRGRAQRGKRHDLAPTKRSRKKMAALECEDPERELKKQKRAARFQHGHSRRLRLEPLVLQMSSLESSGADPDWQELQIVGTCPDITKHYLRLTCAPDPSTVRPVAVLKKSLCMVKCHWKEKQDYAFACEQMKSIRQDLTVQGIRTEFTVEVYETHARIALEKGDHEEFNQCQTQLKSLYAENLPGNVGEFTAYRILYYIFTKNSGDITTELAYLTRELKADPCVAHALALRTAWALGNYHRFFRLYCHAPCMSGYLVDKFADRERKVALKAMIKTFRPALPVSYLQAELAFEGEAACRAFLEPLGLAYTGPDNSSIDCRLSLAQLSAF
Sequence of von Hippel-Lindau disease tumor suppressor/Dual specificity mitogen-activated protein kinase kinase 1 (P40337 whole entry, looked up, stated change not applied): as the sequence (P40337 whole entry, looked up) above
Sequence of von Hippel-Lindau disease tumor suppressor/Dual specificity mitogen-activated protein kinase kinase 1 (Q02750 whole entry, looked up, stated change not applied): as the sequence (Q02750 whole entry, looked up) above
Sequence of von Hippel-Lindau disease tumor suppressor/Dual specificity mitogen-activated protein kinase kinase 2 (P36507 whole entry, looked up, stated change not applied): as the sequence (P36507 whole entry, looked up) above
Sequence of von Hippel-Lindau disease tumor suppressor/Dual specificity mitogen-activated protein kinase kinase 2 (P40337 whole entry, looked up, stated change not applied): as the sequence (P40337 whole entry, looked up) above

Cc1ncsc1-c1ccc([C@H](C)NC(=O)[C@@H]2C[C@@H](O)CN2C(=O)[C@@H](NC(=O)CCCCCCCCCCNCCCONC(=O)c2ccc(F)c(F)c2Nc2ccc(I)cc2F)C(C)(C)C)cc1
> 50%: Activity [7]
27 nM: DC50 [13]
3 to 20: Ratio [2] | Ratio [19]
inactive: Activity [3] | Activity [4] | Activity [5] | Activity [8] | Activity [9] | Activity [10] | Activity [11] | Activity [15] | Activity [16] | Activity [23]
31 nM: DC50 [17]
active: Activity [1] Tde | Activity [6] | growth inhibition (GI) (COLO 205) Dose-dependent effect | Activity [12] | Activity [14] Dose-dependent effect | Activity [18] Dose-dependent effect | Activity [20] Dose-dependent effect | Activity [21] | Activity [24] Tde
> 90%: Activity [22]
30 to 200 nM: GI50 (COLO 205; COLO 205, 72 h)
